We go through two compounds from patent publication US7491711B2, “Methods of treatment using 3-desoxy vitamin D3 analogs” (Roche Palo Alto LLC, priority 2001, dated 2009).

The nature of data set [1]: Serum calcium in the rat ovariectomy model (safety). The note with it: OVX rats. It counts as in vivo. The procedure:
(§1) Comparison of the efficacy of Compound 7 to that of 1,25-dihydroxy vitamin D3 (i.e., VD3), was made using the standard animal model for post menopausal osteopenia, the rat ovariectomy model. Three month old rats weighing 285gm were ovariectomized (OVX), and then treated for 8 weeks beginning 1 week post OVX. Drugs were administered once/day orally in miglyol (medium chain triglyceride) vehicle. Blood and urine samples were collected at the 3 wk and 6 wk timepoint, and bone mineral density (BMD) was determined in vivo at 6 wk using Dual Energy X-ray Absorptiometry (Hologic QDR-4500™ Bone Scanner). At 8 weeks, the animals were sacrificed, and the lumbar vertebrae and femur bones removed for ex vivo BMD determination (Lunar PixiMus™ Bone Scanner) and biomechanical testing for strength. Data for each compound are reported in the accompanying tables for the highest safe doses.
(§2) The doses being compared all gave 3 wk serum calcium levels of 9.3 mg/dl, and 6 wk levels of 9.8±0.1 mg/dl. At these doses, the urinary calcium output per 24 hr sample was the same for the 0.4 nmol/kg dose of VD3 and the 0.5 nmol/kg dose of Compound 7. […] These doses represent those expected to give maximal efficacy achievable safely, as higher doses of each compound are known to be hypercalcemic. […] Failure Load, the amount of force needed to fracture the L5 vertebra, was determined in axial compression testing.

Data set [2] has as its system rat ovariectomy model (post menopausal osteopenia). As to the kind of experiment: L5 vertebral body biomechanics (axial compression testing), rat ovariectomy model. The note with it: OVX rats. It counts as in vivo. The procedure:
as §1, §2

Data set [3] deals with patients commencing long term treatment with prednisone or prednisolone. The note with it: 0.5 to 1.0 micrograms/day plus calcium 1000 mg/day, with or without intranasal calcitonin 400 IU/day; cited from earlier work.
Data set [4] concerns rat ovariectomy model (post menopausal osteopenia). Put plainly: L5 bone density ex vivo (BMD, BMC), rat ovariectomy model. In kind it is in vivo. The note with it: OVX rats. The procedure: as §1
For data set [5] the test system is unchanged. As to the kind of experiment: Bone mineral density in vivo (Dual Energy X-ray Absorptiometry), rat ovariectomy model. The note with it: OVX rats. The procedure:
as §1, §2

Data set [6] has as its system women with postmenopausal osteoporosis. The note with it: cited from earlier work.
The nature of data set [7]: Urinary calcium in the rat ovariectomy model (safety). In kind it is in vivo. The note with it: OVX rats; for urinary calcium output per 24 hr sample, compared between the two substances: 0.4 nmol/kg dose of VD3 and 0.5 nmol/kg dose of Compound 7. The procedure:
as §1, §2

For data set [8], the system named is rat ovariectomy model (post menopausal osteopenia). As to the kind of experiment: Urinary deoxypyridinolines (marker of bone resorption), rat ovariectomy model. In kind it is in vivo. The note with it: OVX rats. The procedure: as §1, §2
Setting [9] is: Week 3, 0.012 nmol/kg once/day orally.
The mark [10] stands for this setting: Week 3, 0.04 nmol/kg once/day orally.
Where [11] appears, read: Week 6, 0.012 nmol/kg once/day orally.
The mark [12] stands for this setting: Week 6, 0.04 nmol/kg once/day orally.
The mark [13] stands for this setting: Week 8, 0.012 nmol/kg once/day orally.
The mark [14] stands for this setting: Week 3, 0.5 nmol/kg once/day orally.
Where [15] appears, read: Week 6, 0.5 nmol/kg once/day orally.
[16] abbreviates: Week 8, 0.5 nmol/kg once/day orally.

Marks after values point to notes of the source that are not given here.

In the case of `C=C1/C(=C\C=C2/CCC[C@]3(C)[C@@H]([C@H](C)CCCC(C)(C)O)CC[C@@H]23)C[C@@H](O)C[C@@H]1O` [VitD, 1,25-dihydroxy vitamin D3], the “SERUM CALCIUM, Mean” value is 9.3 nd mg/dl in data set [1] (setting [9]), 9.3 ns mg/dl in data set [1] (setting [10]), 9.8 **+ mg/dl in data set [1] (setting [11]) and 9.7 ** mg/dl in data set [1] (setting [12]). Besides, in data set [2] (setting [13]), the “L5 Vertebral Body BIOMECHANICS, Failure Load, Mean” value was 342 * N. Moreover, the steroid-induced bone loss entry in data set [3] is “prevented steroid-induced bone loss”. Besides, the “L5 Bone Density Ex Vivo, BMC, Mean” value in data set [4] (setting [13]) is recorded as 0.035 ns g. In addition, in data set [4] (setting [13]), the “L5 Bone Density Ex Vivo, BMD, Mean” value is 0.103 ++ g/cm^2. The “PERCENT BMD > OVX CONTROL in vivo, Distal Femur, Mean” value in data set [5] (setting [11]) and in data set [5] (setting [12]) was 2.8 ++ PERCENT throughout. For the same compound, the “PERCENT BMD > OVX CONTROL in vivo, L2-L4 Vertebrae, Mean” value in data set [5] (setting [11]) is 3.3 ++ PERCENT; in data set [5] (setting [12]) it was 5.4 * PERCENT. Besides, the “PERCENT BMD > OVX CONTROL in vivo, L5 vertebrae, Mean” value in data set [5] (setting [11]) is 2.7 ++ PERCENT; in data set [5] (setting [12]), 4.9 ++ PERCENT. In addition, the “PERCENT BMD > OVX CONTROL in vivo, Prox Femur, Mean” value in data set [5] (setting [11]) was 3.5 ns PERCENT; in data set [5] (setting [12]) it was 0.7 ++ PERCENT. Besides, the “PERCENT BMD > OVX CONTROL in vivo, Whole Femur, Mean” value in data set [5] (setting [11]) was 3.3 + PERCENT; in data set [5] (setting [12]), 1.9 ++ PERCENT. Besides, the “lower rate of new vertebral fractures compared with patients receiving elemental calcium 1000 mg/day” value in data set [6] (mild to moderate disease, 0.25 microgram twice daily, after 3 years of treatment) is listed as 3 fold. In data set [6] (patients, overall), the tolerability entry was “well tolerated”. In data set [7], the “urinary calcium output per 24 hr sample, compared between the two substances” value is “the same”. For the same compound, the “URINARY CALCIUM, Mean” value in data set [7] (setting [9]) is given as 0.31 ** MG/MMOL Creatineine/day; in data set [7] (setting [10]) it was 0.51 **+ MG/MMOL Creatineine/day; in data set [7] (setting [11]) it was 0.43 ** MG/MMOL Creatineine/day; in data set [7] (setting [12]) it was 0.71 **++ MG/MMOL Creatineine/day. The “URINARY D-PYD, Mean” value in data set [8] (setting [9]) was 0.81 ++ nM/mM Creatinine; in data set [8] (setting [10]), 0.75 ++ nM/mM Creatinine; in data set [8] (setting [11]), 0.78 ++ nM/mM Creatinine; in data set [8] (setting [12]) it was 0.76 ++ nM/mM Creatinine.
`C=C1/C(=C\C=C2/CCC[C@]3(C)[C@@H](C4(C/C=C/C(O)(C(F)(F)F)C(F)(F)F)CC4)CC[C@@H]23)CCC[C@@H]1O` [Compound 27]: the “SERUM CALCIUM, Mean” value in data set [1] (setting [14]) amounted to 9.3 ns mg/dl. In addition, the “SERUM CALCIUM, Mean” value in data set [1] (setting [15]) was 9.9 **+ mg/dl. The vertebral bone strength result in data set [2] (L5 vertebra) is given as “stronger vertebral bone”. In data set [2] (setting [16]), the “L5 Vertebral Body BIOMECHANICS, Failure Load, Mean” value was 419 ** N. Besides, in data set [2] (axial compression testing, highest safe doses), the “Failure Load, force needed to fracture the L5 vertebra, compared with VD3” value is given as “Significantly more force was needed”. Moreover, in data set [4] (setting [16]), the “L5 Bone Density Ex Vivo, BMC, Mean” value is recorded as 0.039 ** g and the “L5 Bone Density Ex Vivo, BMD, Mean” value is on record as 0.112 ** g/cm^2. In data set [5] (setting [15]), the “PERCENT BMD > OVX CONTROL in vivo, Distal Femur, Mean” value is listed as 8.5 ** PERCENT; the “PERCENT BMD > OVX CONTROL in vivo, L2-L4 Vertebrae, Mean” value is on record as 10.3 ** PERCENT; the “PERCENT BMD > OVX CONTROL in vivo, L5 vertebrae, Mean” value is listed as 8.7 ** PERCENT; the “PERCENT BMD > OVX CONTROL in vivo, Prox Femur, Mean” value was 5.7 ** PERCENT. Further, the “PERCENT BMD > OVX CONTROL in vivo, Whole Femur, Mean” value in data set [5] (setting [15]) is listed as 6.3 ** PERCENT. The “BMD at all of the bone sites listed, compared with VD3” value in data set [5] (doses which give equivalent serum calcium levels) is given as “significantly higher”. Moreover, the “urinary calcium output per 24 hr sample, compared between the two substances” value in data set [7] was “the same”. The “URINARY CALCIUM, Mean” value in data set [7] (setting [14]) is 0.51 **+ MG/MMOL Creatineine/day. Moreover, the “URINARY CALCIUM, Mean” value in data set [7] (setting [15]) is recorded as 0.72 **++ MG/MMOL Creatineine/day. In data set [8] (6 weeks), the “Urinary deoxy-pyridinolines (marker of bone resorption), compared with VD3” value is “significantly less”. Also, in data set [8] (setting [14]), the “URINARY D-PYD, Mean” value is on record as 0.65 *+ nM/mM Creatinine. Further, the “URINARY D-PYD, Mean” value in data set [8] (setting [15]) is recorded as 0.57 **+ nM/mM Creatinine.
